From the supplement of paper PMC10307832

Key:
Test in all cases: relative viability (nuclei count vs DMSO), 5 days (fraction); higher = more cells survive
[1] = compound: CC(C)(C)c1nc(-c2cccc(NS(=O)(=O)c3c(F)cccc3F)c2F)c(-c2ccnc(N)n2)s1 [Dabrafenib] + Cc1cc(Nc2cc(N3CCN(C)CC3)nc(Sc3ccc(NC(=O)C4CC4)cc3)n2)n[nH]1 [Tozasertib] (partner 0.1 µM)
Procedure, shortened: (§1)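 Cells from lung cancer lines were seeded into 1536-well plates and, one day later, dosed by pin tool. Treatments were either a single drug or a fixed dose of an anchor drug with five library-drug doses (not always all listed) in √10 steps. After 5 days, nuclei were stained in a one-step fixation (final 0.05% Triton X-100, 1% formaldehyde, 1 ug/ml Hoechst) and counted on 4× images, and relative viability is the treated-to-vehicle nuclei ratio, as the median of duplicate plates.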

[2] = compound: NC(=O)c1ccc(N(C(N)=O)c2c(F)cccc2F)nc1-c1ccc(F)cc1F [VX-702] + CC1(C)CCC(c2ccc(Cl)cc2)=C(CN2CCN(c3ccc(C(=O)NS(=O)(=O)c4ccc(N[C@H](CCN5CCOCC5)CSc5ccccc5)c(S(=O)(=O)C(F)(F)F)c4)cc3)CC2)C1 [Navitoclax] (partner 0.5 µM)
Procedure, shortened: as §1

[3] = compound: NC(=O)c1ccc(N(C(N)=O)c2c(F)cccc2F)nc1-c1ccc(F)cc1F [VX-702] + CC(=O)c1c(C)c2cnc(Nc3ccc(N4CCNCC4)cn3)nc2n(C2CCCC2)c1=O [Palbociclib] (partner 0.5 µM)
Procedure, shortened: as §1

[4] = compound: NC(=O)c1ccc(N(C(N)=O)c2c(F)cccc2F)nc1-c1ccc(F)cc1F [VX-702] + C[C@]1(O)C[C@@H](c2nc(-c3ccc4ccc(-c5ccccc5)nc4c3)c3c(N)nccn32)C1 [Linsitinib] (partner 1 µM)
Procedure, shortened: as §1

Cell Line | relative viability ([1]; first compound 0.003 µM) | relative viability ([1]; first compound 0.009487 µM) | relative viability ([1]; first compound 0.03 µM) | relative viability ([1]; first compound 0.09487 µM) | relative viability ([1]; first compound 0.3 µM) | relative viability ([2]; first compound 0.02 µM) | relative viability ([2]; first compound 0.2 µM) | relative viability ([2]; first compound 0.6325 µM) | relative viability ([2]; first compound 2 µM) | relative viability ([3]; first compound 0.02 µM) | relative viability ([3]; first compound 0.2 µM) | relative viability ([3]; first compound 0.6325 µM) | relative viability ([3]; first compound 2 µM) | relative viability ([4]; first compound 0.02 µM) | relative viability ([4]; first compound 0.2 µM) | relative viability ([4]; first compound 0.6325 µM) | relative viability ([4]; first compound 2 µM)
NCI-H2170 | 0.805 | 0.811 | 0.632 | 0.62 | 0.727 | 0.625 | 0.372 | 0.665 | 0.607 | 0.355 | 0.374 | 0.42 | 0.369 | – | – | – | –
NCI-H1623 | – | 0.466 | 0.431 | 0.447 | 0.524 | – | – | – | – | – | – | – | – | – | – | – | –
NCI-H358 | 0.102 | 0.0949 | 0.0962 | 0.106 | 0.0813 | – | – | – | – | 0.127 | 0.141 | 0.134 | 0.142 | 0.748 | 0.728 | 0.613 | 0.963
NCI-H596 | – | 0.781 | 0.826 | 0.821 | 0.977 | 0.959 | 0.946 | 0.881 | 0.994 | – | – | – | – | 0.996 | 1.1 | 1.02 | 1.1
NCI-H650 | – | 0.667 | 0.738 | 0.502 | 0.38 | – | – | – | – | 0.349 | 0.327 | 0.326 | 0.348 | 0.927 | – | 1.07 | 1.12
Calu-6 | – | – | – | – | – | 0.927 | 0.811 | 1.01 | 1.01 | – | – | – | – | – | 0.967 | 1.09 | 1.02
LCLC-103H | 0.401 | 0.514 | 0.424 | 0.44 | 0.5 | – | – | – | – | 0.459 | 0.498 | 0.439 | 0.434 | 1.23 | 0.954 | 1.12 | 1
NCI-H2342 | 0.44 | 0.484 | 0.452 | 0.52 | 0.586 | – | – | – | – | 0.511 | 0.606 | 0.512 | 0.539 | – | – | – | –
A549 | – | – | – | – | – | 1.25 | 1.23 | 1.28 | 1.42 | – | – | – | – | 0.502 | 0.579 | 0.57 | 0.563
NCI-H1792 | – | – | – | – | – | 0.718 | 0.621 | 0.695 | 0.753 | 0.614 | 0.587 | 0.653 | 0.546 | 0.404 | 0.484 | 0.458 | 0.5
NCI-H1563 | – | – | – | – | – | – | – | – | – | – | – | – | – | 1.23 | 1.15 | 1.18 | 1.14
NCI-H1299 | – | – | – | – | – | 1.1 | 1.08 | 1.07 | 1.15 | – | – | – | – | 1.17 | 0.999 | 1.06 | 1.09
NCI-H1648 | 0.641 | 0.463 | 0.685 | 0.396 | 0.376 | – | – | – | – | 0.268 | 0.294 | 0.244 | 0.319 | – | – | – | –
NCI-H1703 | – | – | – | – | – | 1.01 | 1.35 | 1.08 | 1.47 | – | – | – | – | 0.531 | 0.717 | 0.937 | 1.26
EBC-1 | – | – | – | – | – | 0.441 | 0.413 | 0.337 | 0.389 | – | – | – | – | 1.07 | 0.935 | 0.914 | 0.993
